Assay results taken from patent publication US7763596B2, “Selective glucocorticoid receptor agonists” (The University of Manchester, priority 2000, dated 2010).
“Also recorded” adds a separate entry of the source.

What was measured:
GFP tagged GR = biological target: T1, GFP tagged GR (Homo sapiens, UniProt P04150); test: Nuclear translocation using GFP tagged GR and fluorescent microscopy; type: cell-based; settings: COS 7 cells, 100 nM, 3 hours
T1 construct: expressed in transfected cells; host or cells: COS 7
T1 sequence (P04150 1-777): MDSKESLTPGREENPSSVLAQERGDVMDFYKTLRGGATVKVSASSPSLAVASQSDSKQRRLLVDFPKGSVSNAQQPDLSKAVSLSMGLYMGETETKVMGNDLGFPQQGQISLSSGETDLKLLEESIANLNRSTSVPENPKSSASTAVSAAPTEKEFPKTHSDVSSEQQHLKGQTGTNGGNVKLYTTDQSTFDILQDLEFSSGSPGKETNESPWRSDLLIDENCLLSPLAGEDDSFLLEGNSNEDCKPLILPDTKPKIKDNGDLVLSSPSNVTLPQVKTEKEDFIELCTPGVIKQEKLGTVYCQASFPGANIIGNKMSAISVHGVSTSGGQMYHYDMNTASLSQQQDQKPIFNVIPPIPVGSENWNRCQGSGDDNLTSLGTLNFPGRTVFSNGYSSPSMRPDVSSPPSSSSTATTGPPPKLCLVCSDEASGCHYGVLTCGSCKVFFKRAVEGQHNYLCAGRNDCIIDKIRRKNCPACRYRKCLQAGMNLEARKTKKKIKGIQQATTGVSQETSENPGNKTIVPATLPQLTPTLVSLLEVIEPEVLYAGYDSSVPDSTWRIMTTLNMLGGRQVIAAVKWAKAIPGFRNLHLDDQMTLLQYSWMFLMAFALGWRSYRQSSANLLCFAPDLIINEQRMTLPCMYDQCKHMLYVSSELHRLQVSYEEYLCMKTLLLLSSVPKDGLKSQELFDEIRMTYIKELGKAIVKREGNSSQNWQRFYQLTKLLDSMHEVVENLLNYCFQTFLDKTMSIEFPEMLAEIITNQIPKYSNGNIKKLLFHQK
Source text: The un-liganded GR is present in the cytoplasm of cells in association with heat shock proteins (HSPs). The binding of an agonist ligand to the GR causes dissociation from the HSPs and translocation to the nucleus. A type I antagonist ligand can bind to the GR but cannot translocate to the nucleus. A type II antagonist ligand can bind to the GR, translocate to the nucleus and bind to DNA but cannot activate gene transcription. Therefore, the ability of a putative ligand to translocate the GR helps to determine its status as an agonist or antagonist. COS 7 cells were transfected with 5 μg of a green fluorescent protein (GFP) tagged GR expression vector. After transfection, these cells were split into 6 well plates with sterile microscope cover slips placed at the bottom of each well. The cells were allowed to recover for 18 hours and then the medium was removed, the cells were washed three times with sterile phosphate buffered saline (PBS) and new medium was added containing charcoal stripped FCS in place of normal FCS. The cells were incubated for 18 hours and then the steroids of FIGS. 1 and 2A were added to make a final concentration of 100 nM. The cells were incubated for a further 3 hours and then the medium was aspirated and the cells were fixed to the glass coverslips by adding ice cold methanol and incubating at −20° C. for 30 mins. The coverslips with the transfected cells fixed to them were mounted on slides and the cellular localisation of the GFP tagged GR was analysed by fluorescent microscopy using an Axioplan 2 microscope (Zeiss, Oberkochen, Germany) and KS300 v3.0 analysis software (Zeiss).

CEM-C7A cells = test: Apoptosis assay in CEM-C7A cells (viable cell count, MTS); type: cell-based, human; settings: CEM C7A cells, 100 nM, three day incubation
Procedure: The CEM-C7A cell line is a steroid sensitive clone of the CCRF-CEM cell line (ECACC 85112105). This is a T lymphoblastoid cell line with functional endogenous GR.
Apoptosis (programmed cell death) is mediated by a protein called Bax the transcription of which is primarily controlled by the GR in a ligand dependant manner. To measure the ability of a GR ligand to effect apoptosis a suitable cell line was incubated with ligand and a viable cell count was performed after three days.
CEM-C7A cells were plated out on to a 96well plate at 5×10^5/well. The steroids of FIGS. 1 and 2A were added immediately to generate a final concentration of 100 nM. After a three day incubation the live cell number in each well was assessed using Celltiter 96 Aqueous Non-Radioactive Cell Proliferation Assay (Promega). This assay is a calorimetric method for determining the number of viable cells in proliferation or chemosensitivity assays.
Briefly, the assay is composed of solutions of a novel tetrazolium compound (3-(4,5-dimethylthiazol-2-yl)-5-(3-carboxymethoxyphenyl)-2-(4-sulfophenyl)-2H-tetrazolium, MTS) and an electron coupling reagent (phenazine methosulfate; PMS). MTS is bioreduced by cells into a formazan product that is soluble in tissue culture medium. The absorbance of the formazan at 490 nm can be measured directly from 96 well assay plates without additional processing. The conversion of MTS into aqueous, soluble formazan is accomplished by dehydrogenase enzymes found in metabolically active cells. The quantity of formazan product as measured by the amount of 490 nm absorbance is directly proportional to the number of living cells in culture.

glucocorticoid receptor [1] = biological target: T2, glucocorticoid receptor (Homo sapiens, UniProt P04150); test: Ligand binding competition assay, 3H Dexamethasone; set-up: Human HeLa 53 cells; endogenous in cells; settings: Human HeLa 53 cells, 2 hours @25° C.
T2 sequence (P04150 1-777): T1 sequence (P04150 1-777)
Procedure: Binding of compound G to the glucocorticoid receptor was investigated using a standard competition assay. The conditions were as follows:
IC50 values were determined by a non-linear, least squares regression The KI values were calculated using the equation of Cheng and Prusoff using the observed IC50 of the test compound, the concentration of radioligand employed in the assay, and the historic values for the Kd for the ligand. The Hill coefficient (nH), defined as the slope of the competitive binding curve, was calculated.

glucocorticoid receptor [2] = biological target: T2, glucocorticoid receptor; test: Selectivity for transrepression over transactivation in vitro; type: cell-based; set-up: expressed in transfected cells; host or cells: COS 7 (African green monkey kidney, deficient in endogenous GR)
glucocorticoid receptor [3] = biological target: T2, glucocorticoid receptor; test: Type II antagonist activity assay: competition of dexamethasone transactivation; type: cell-based; set-up: expressed in transfected cells; host or cells: COS 7 (African green monkey kidney, deficient in endogenous GR); settings: COS7 cells stimulated with 1 nM dexamethasone
Procedure: A type II antagonist should be able to compete agonist activity. As an antagonist has no ability to transactivate, competition can be measured by inhibition of an agonist in a transactivation assay.
As with the standard transactivation assay previously described, the GR was artificially expressed in a cell line lacking endogenous GR and a GRE “driving” a luciferase reporter gene was used to measure ligand dependent activation. COS7 cells were transfected with 1 μg pcDNA3-GR and 3 μg AH3-Luc per 10 cm tissue culture dish. The cells were plated out in to 24 well plates after transfection and the steroids were added immediately. […] Certain steroids from FIG. 2A were added at the same concentration to all sample wells. After 18 hour incubation the cells were lysed and a luciferase assay was performed.

nuclear translocation of the GFP tagged glucocorticoid receptor (GFP tagged GR) | SMILES | induction of apoptosis (CEM-C7A cells) | competition of dexamethasone transactivation (glucocorticoid receptor [3]) | other results
caused nuclear localisation | CC1CC2C3CCC4=CC(=O)C=CC4(C)C3(F)C(O)CC2(C)C12OC(C)(C)OCC2=O (stereo not drawn) [Compound A] | most potent inducers of apoptosis | – | –
caused nuclear localisation | CC1CC2C3CCC4=CC(=O)C=CC4(C)C3(F)C(O)CC2(C)C1(O)C(=O)COC(=O)c1ccc(F)cc1 (stereo not drawn) [Compound D] | – | – | –
failed to cause translocation | Cc1ccc(NC(=O)C2(O)C(C)CC3C4CCC5=CC(=O)C=CC5(C)C4(F)C(O)CC32C)cc1 (stereo not drawn) [Compound O] | – | failed to repress dexamethasone transactivation | –

The next lines start with the compound.

SMILES | nuclear translocation of the GFP tagged glucocorticoid receptor (GFP tagged GR) | induction of apoptosis (CEM-C7A cells) | competition of dexamethasone transactivation (glucocorticoid receptor [3]) | other results
CCCNC(=O)C1(O)C(C)CC2C3CCC4=CC(=O)C=CC4(C)C3(F)C(O)CC21C (stereo not drawn) [Compound G] | – | apoptosis was induced | – | binding to the glucocorticoid receptor, competition with 3H Dexamethasone (glucocorticoid receptor [1]): bound to the glucocoticoid receptor; also recorded: right shifted when compared to dexamethasone; also recorded: less potent ligand than dexamethasone; selectivity for transrepression over transactivation (glucocorticoid receptor [2]): approximately 1000 fold
CC1CC2C3CCC4=CC(=O)C=CC4(C)C3(F)C(O)CC2(C)C1(O)C(=O)NCCCO (stereo not drawn) [L] | – | – | failed to repress dexamethasone transactivation | –
CC1CC2C3CCC4=CC(=O)C=CC4(C)C3(F)C(O)CC2(C)C1(O)C(=O)NCCC(=O)O (stereo not drawn) [Q] | – | not | failed to repress dexamethasone transactivation | –
CCCOC(=O)C1(O)C(C)CC2C3CCC4=CC(=O)C=CC4(C)C3(F)C(O)CC21C (stereo not drawn) [R] | – | – | failed to repress dexamethasone transactivation | –
